Test results taken from US6004960A, “Pyridazinones as inhibitors of cyclooxygenase-2” (Merck Frosst Canada, Inc., priority 1998, dated 1999).

Columns and labels:
[1] = target: T1, COX-2 (Homo sapiens, UniProt P35354); test: Human whole blood assay, COX-2 (LPS-induced PGE2 production); assay type: cell-based; parameters: incubation of human whole blood with LPS, which induces COX-2; from tissue; host or cells: fresh human whole blood (volunteers), incubated with LPS; details: LPS-induced PGE2, 24 hours at 37° C, read-out: COX-2 (IC50 μM) HWB
T1 sequence (P35354 18-604): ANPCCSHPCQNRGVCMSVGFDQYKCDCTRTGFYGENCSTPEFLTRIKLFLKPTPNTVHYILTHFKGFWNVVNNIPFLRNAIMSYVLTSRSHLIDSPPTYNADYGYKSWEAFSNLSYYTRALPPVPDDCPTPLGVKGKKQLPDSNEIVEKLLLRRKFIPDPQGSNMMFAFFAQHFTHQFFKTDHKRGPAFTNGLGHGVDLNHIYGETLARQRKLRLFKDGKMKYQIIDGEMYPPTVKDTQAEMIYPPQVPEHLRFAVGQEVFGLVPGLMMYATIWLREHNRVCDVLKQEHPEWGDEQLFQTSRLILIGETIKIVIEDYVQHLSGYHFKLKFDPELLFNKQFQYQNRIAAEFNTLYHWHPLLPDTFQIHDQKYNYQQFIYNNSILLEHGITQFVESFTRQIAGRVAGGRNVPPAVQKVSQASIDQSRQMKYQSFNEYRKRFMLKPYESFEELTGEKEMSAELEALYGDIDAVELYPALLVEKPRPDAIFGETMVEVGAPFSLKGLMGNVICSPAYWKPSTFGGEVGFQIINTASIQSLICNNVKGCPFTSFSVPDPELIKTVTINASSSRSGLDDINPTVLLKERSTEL
Source text: (§1) As well, platelets in whole blood contain a large amount of the COX-1 enzyme. Immediately following blood clotting, platelets are activated through a thrombin-mediated mechanism. This reaction results in the production of thromboxane B2 (TxB2) via activation of COX-1. Thus, the effect of test compounds on TxB2 levels following blood clotting can be examined and used as an index for COX-1 activity. Therefore, the degree of selectivity by the test compound can be determined by measuring the levels of PGE2 after LPS induction (COX-2) and […] following blood clotting (COX-1) in the same assay.
A. COX-2 (LPS-induced PGE2 production)
Fresh blood is collected in heparinized tubes by venipuncture from both male and female volunteers. The subjects have no apparent inflammatory conditions and have not taken any NSAIDs for at least 7 days prior to blood collection. Plasma is immediately obtained from a 2mL blood aliquot to use as blank (basal levels of PGE2). The remaining blood is incubated with LPS (100 μg/ml final concentration, Sigma Chem, #L-2630 from E. coli; diluted in 0.1% BSA (Phosphate buffered saline) for 5 minutes at room temperature. Five hundred μL aliquots of blood are incubated with either 2μL of vehicle (DMSO) or 2 μL of a test compound at final concentrations varying from 10nM to 30 μM for 24 hours at 37° C. At the end of the incubation, the blood is centrifuged at 12,000×g for 5 minutes to obtain plasma. A 100 μL aliquot of plasma is mixed with 400 μL of methanol for protein precipitation. The supernatant is obtained and is assayed for PGE2 using a radioimmunoassay kit (Amersham, RPA#530) after conversion of PGE2 to its methyl oximate derivative according to the manufacturer's procedure. […]

[2] = target: COX-1 (Homo sapiens, UniProt P23219); test: Human whole blood assay, COX-1 (clotting-induced TxB2 production); assay type: cell-based; parameters: platelets in whole blood contain a large amount of the COX-1 enzyme; from tissue; host or cells: fresh human whole blood (platelets), allowed to clot; details: clotting-induced TxB2, 1 hour at 37° C, read-out: COX-1 (IC50 μM) HWB
Procedure: as §1, with “Human whole blood provides a protein and cell-rich milieu appropriate for the study of biochemical efficacy of anti-inflammatory compounds such as selective COX-2 inhibitors. […] This is consistent with the observation that COX-2 inhibitors have no effect on PGE2 production in normal blood. These inhibitors are active only after incubation of human whole blood with LPS, which induces COX-2. This assay can be used to evaluate the inhibitory effect of selective COX-2 inhibitors on PGE2 production. As” for “As”
B. COX-1 (Clotting-induced TxB2 production)
Fresh blood is collected into vacutainers containing no anticoagulants. […] The tubes are vortexed and incubated at 37° C. for 1 hour to allow blood to clot. At the end of incubation, serum is obtained by centrifugation (12,000×g for 5 min.). A 100 μL aliquot of serum is mixed with 400 μL of methanol for protein precipitation. The supernatant is obtained and is assayed for T×B2 using a enzyme immunoassay kit (Cayman, #519031) according to the manufacturer's instruction.

Sequence of COX-1 (P23219 24-599): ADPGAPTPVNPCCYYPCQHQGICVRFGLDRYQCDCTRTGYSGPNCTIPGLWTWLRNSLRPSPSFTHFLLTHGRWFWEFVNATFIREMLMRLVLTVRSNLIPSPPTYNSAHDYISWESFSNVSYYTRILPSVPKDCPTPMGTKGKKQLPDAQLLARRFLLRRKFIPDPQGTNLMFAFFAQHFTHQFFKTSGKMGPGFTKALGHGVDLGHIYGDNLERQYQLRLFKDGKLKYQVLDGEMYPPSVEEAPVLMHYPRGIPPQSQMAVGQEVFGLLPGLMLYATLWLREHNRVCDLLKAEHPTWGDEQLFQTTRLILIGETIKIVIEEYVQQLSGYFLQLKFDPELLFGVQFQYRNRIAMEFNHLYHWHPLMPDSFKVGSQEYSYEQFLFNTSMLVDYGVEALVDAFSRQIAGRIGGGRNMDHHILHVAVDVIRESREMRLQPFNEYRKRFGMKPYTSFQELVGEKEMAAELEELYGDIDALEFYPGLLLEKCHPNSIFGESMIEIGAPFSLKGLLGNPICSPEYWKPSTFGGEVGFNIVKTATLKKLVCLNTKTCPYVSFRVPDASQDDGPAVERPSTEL

CS(=O)(=O)c1ccc(-c2cnn(Cc3ccccc3)c(=O)c2-c2cccnc2)cc1 [Example 28, 2-Benzyl-5-(4-methylsulfonyl)phenyl-4-(3-pyridyl)-2H-pyridazin-3-one]
IC50 [1]: 1.5 µM | IC50 [2]: 56 µM
